Columns and labels:
PinX1 ubiquitylation = assay: ECL assay for N-end rule ubiquitylation of PinX1; format: biochemical; details: 1 mM inhibitor; rabbit reticulocyte lysate; 50 μM MG-132; 30° C.; FIG. 9(A),(B)
Method: (§1) Protein was produced from the plasmid DNA in a transcription-translation reaction mixture containing rabbit reticulocyte lysate and SP6 RNA polymerase (TNT SP6 Quick Mix, Promega) and that was further supplemented with 20 μM methionine, 8-30 μg/ml plasmid DNA, 20 μg/ml biotinylated Lys-tRNA (transcend tRNA, Promega), and 50 μM of the proteosome inhibitor MG-132 (Calbiochem) in a total volume of 12.5 μl. Ubiquitylation of newly synthesized proteins occurred in the same reaction mixtures and was driven by the ubiquitylation system present in reticulocyte lysates. An ECL-based ubiquitylation assay (described below) was used to determine if the newly synthesized protein was ubiquitylated. […]
(§2) The reactions were allowed to proceed for a desired period of time at 30° C. In some experiments, several reaction time points were analyzed. […] Thereafter the plate was washed three times with 20 mM Tris-HCl, 0.004% Triton X-100 followed by addition of 150 μl of a buffered solution containing tripropylamine (MSD Read Buffer, Meso-Scale Discovery, Gaithersburg Md.) into each well. ECL signals from labels bound to the electrode surfaces were measured using a Sector HTS instrument.
PinX1 was produced using IMAGE clone #3911679 and analyzed for its ability to act as an N-end rule substrate by ECL assay as described in the Materials and Methods.

tau ubiquitylation = assay: ECL assay for N-end rule ubiquitylation of tau; format: biochemical; details: 1 mM inhibitor; rabbit reticulocyte lysate; 50 μM MG-132; 30° C.; FIG. 3(A),(B)
Method: as §1
as §2, with “instrument. […]” for “instrument.”

HMGN3 ubiquitylation = assay: ECL assay for N-end rule ubiquitylation of HMGN3; format: biochemical; details: 1 mM inhibitor; HMGN3 from clones #3890883 and #4749335, effect most pronounced for clone #4749335; rabbit reticulocyte lysate; 50 μM MG-132; 30° C.; FIG. 10
Method: as §1, §2
HMGN3 was produced using IMAGE clones #3890883 and #4749335 and analyzed for its ability to act as an N-end rule substrate by ECL assay as described in Materials and Methods.

HMGN2 ubiquitylation = assay: ECL assay for N-end rule ubiquitylation of HMGN2; format: biochemical; details: 1 mM inhibitor; rabbit reticulocyte lysate; 50 μM MG-132; 30° C.; FIG. 6(A),(B)
Method: as §1, §2
High Mobility Group Chromosomal Protein 17 (now renamed HMGN2) was produced using IMAGE clone #3455121 and analyzed for its ability to act as an N-end rule substrate by ECL assay as described in Materials and Methods. […]

aprataxin ubiquitylation = assay: ECL assay for N-end rule ubiquitylation of aprataxin; format: biochemical; details: 1 mM inhibitor (equivalent concentrations); rabbit reticulocyte lysate; 50 μM MG-132; 30° C.; FIG. 4(A),(B)
Method: as §1, §2
Aprataxin was produced using IMAGE clone #3994375 and analyzed for its ability to act as an N-end rule substrate by ECL assay and by gel electrophoresis as described in the Materials and Methods.

cdc6 ubiquitylation = assay: ECL assay for N-end rule ubiquitylation of CDC6; format: biochemical; details: 1 mM inhibitor; rabbit reticulocyte lysate; 50 μM MG-132; 30° C.; FIG. 7(A),(B)
Method: as §1, §2
Cell Cycle Controller cdc6 was produced using IMAGE clone #3867414 and analyzed for its ability to act as an N-end rule substrate by ECL assay and by gel electrophoresis as described in the Materials and Methods.

HSPC144 ubiquitylation = assay: ECL assay for N-end rule ubiquitylation of HSPC144; format: biochemical; details: 1 mM inhibitor; rabbit reticulocyte lysate; 50 μM MG-132; 30° C.; FIG. 8(A),(B)
Method: as §1, §2
HSPC144 was produced using IMAGE clone #3907737 and analyzed for its ability to act as an N-end rule substrate by ECL assay as described in the Materials and Methods.

[1] = tested on: synaptotagmin-like protein 2 ubiquitylation; assay: ECL assay for N-end rule ubiquitylation of synaptotagmin-like protein 2; format: biochemical; details: 1 mM inhibitor; rabbit reticulocyte lysate; 50 μM MG-132; 30° C.; FIG. 5(A),(B)
Method: as §1, §2
Synaptotagmin-like protein 2 was produced using IMAGE clone #3887550 and analyzed for its ability to act as an N-end rule substrate by ECL assay and by gel electrophores is as described in the Materials and Methods.

RGS4 ubiquitylation = assay: ECL assay for N-end rule ubiquitylation of RGS4; format: biochemical; details: 1 mM inhibitor; rabbit reticulocyte lysate; 50 μM MG-132; 30° C.; FIG. 2(A),(B)
Method: as §1
as §2, with “instrument. […]” for “instrument.”

[2] = tested on: RGS4 ubiquitin/proteosome degradation via N-end rule pathway; assay: Denaturing gel analysis of N-end rule-dependent degradation of RGS4; format: biochemical, rabbit; details: [14C]-lysine, MG-132 omitted, SDS-PAGE time course, 30° C.; FIG. 2(C)
Method: Proteins were synthesized as described in the previous section except that biotinylated Lys-tRNA was substituted with [^14C]-lysine, and MG-132 was omitted. The reactions were incubated at 30° C. for indicated times. They were stopped by transferring of aliquots of reactions into SDS-sample buffer. The samples were heated for 5 min at 95° C. and fractionated by SDS-PAGE on 4-20% gradient polyacrylamide gels. Gels were soaked in Amplify™ fluorographic reagent (Amersham Pharmacia Biotech), dried and exposed to X-ray films.
RGS4 was produced and characterized as an N-end rule substrate as described in the Materials and Methods section. RGS4 is a known Type 1 N-end rule ubiquitylation substrate (Davydov and Varshavsky, 2000, J. Biol. Chem., 275: 22931).

Substance | % of PinX1 ubiquitylation in the presence of specific N-end rule inhibitors compared to the reaction in the absence of the inhibitors (PinX1 ubiquitylation) | % of tau ubiquitylation in the presence of specific N-end rule inhibitors compared to the reaction in the absence of the inhibitors (tau ubiquitylation) | % of HMGN3 ubiquitylation in the presence of specific N-End Rule inhibitors compared to the reaction in the absence of the inhibitors (HMGN3 ubiquitylation) | % of HMGN2 ubiquitylation in the presence of specific N-end rule inhibitors compared to the reaction in the absence of the inhibitors (HMGN2 ubiquitylation) | % of aprataxin ubiquitylation in the presence of specific N-end rule inhibitors compared to the reaction in the absence of the inhibitors (aprataxin ubiquitylation) | % of cdc6 ubiquitylation in the presence of specific N-end rule inhibitors compared to the reaction in the absence of the inhibitors (cdc6 ubiquitylation) | % of HSPC144 ubiquitylation in the presence of specific N-end rule inhibitors compared to the reaction in the absence of the inhibitors (HSPC144 ubiquitylation) | % of synaptotagmin-like protein 2 ubiquitylation in the presence of specific N-end rule inhibitors compared to the reaction in the absence of the inhibitors [1] | % of RGS4 ubiquitylation in the presence of specific N-end rule inhibitors compared to the reaction in the absence of the inhibitors (RGS4 ubiquitylation) | accumulation of the C-terminal fragment of RGS4 having the N-terminal Met removed (autoradiogram) [2]
Trp-Ala | no effect | little to no effect | little effect | little to no effect | little to no effect | smaller effect | no effect | inhibit synaptotagmin-like protein 2 ubiquitylation to a similar extent | little to no effect | –
Arg-β-Ala | inhibit PinX1 ubiquitylation to a similar extent | inhibit tau ubiquitylation to a similar extent | inhibit HMGN3 ubiquitylation to a greater extent | inhibit HMGN2 ubiquitylation to a similar extent | inhibit aprataxin ubiquitylation to a similar extent | inhibit cdc6 ubiquitylation to a similar extent | inhibit HSPC ubiquitylation to a similar extent | little to no effect | inhibit RGS4 ubiquitylation to a similar extent | time dependent accumulation exclusively in the presence of Arg-β-Ala inhibitor
